Measurements taken from ChEMBL document CHEMBL3259629, “Discovery and optimization of piperidyl-1,2,3-triazole ureas as potent, selective, and in vivo-active inhibitors of α/β-hydrolase domain containing 6 (ABHD6)” (J Med Chem, 2013).

Assays:
Settings in all cases: Neuro2a, 3 nM
[1] = target: T1, Presenilin-associated rhomboid-like protein, mitochondrial (Mus musculus) (UniProt Q5XJY4)
T1 sequence (whole entry): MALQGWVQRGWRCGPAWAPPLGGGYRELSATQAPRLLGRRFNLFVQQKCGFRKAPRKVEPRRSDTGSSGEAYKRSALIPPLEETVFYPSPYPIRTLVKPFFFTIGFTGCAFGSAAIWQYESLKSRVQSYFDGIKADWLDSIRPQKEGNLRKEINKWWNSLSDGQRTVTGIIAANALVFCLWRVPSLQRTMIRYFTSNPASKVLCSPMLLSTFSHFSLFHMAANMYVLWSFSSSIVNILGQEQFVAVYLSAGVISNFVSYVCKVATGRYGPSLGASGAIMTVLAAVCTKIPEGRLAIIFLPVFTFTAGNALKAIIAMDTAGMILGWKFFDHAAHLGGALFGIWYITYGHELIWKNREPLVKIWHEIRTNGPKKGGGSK
Description: Inhibition of Parl in mouse Neuro2a cells at 3 nM after 4 hrs by ABPP-SILAC assay

[2] = target: T2, 85/88 kDa calcium-independent phospholipase A2 (Mus musculus) (UniProt P97819)
T2 sequence (whole entry): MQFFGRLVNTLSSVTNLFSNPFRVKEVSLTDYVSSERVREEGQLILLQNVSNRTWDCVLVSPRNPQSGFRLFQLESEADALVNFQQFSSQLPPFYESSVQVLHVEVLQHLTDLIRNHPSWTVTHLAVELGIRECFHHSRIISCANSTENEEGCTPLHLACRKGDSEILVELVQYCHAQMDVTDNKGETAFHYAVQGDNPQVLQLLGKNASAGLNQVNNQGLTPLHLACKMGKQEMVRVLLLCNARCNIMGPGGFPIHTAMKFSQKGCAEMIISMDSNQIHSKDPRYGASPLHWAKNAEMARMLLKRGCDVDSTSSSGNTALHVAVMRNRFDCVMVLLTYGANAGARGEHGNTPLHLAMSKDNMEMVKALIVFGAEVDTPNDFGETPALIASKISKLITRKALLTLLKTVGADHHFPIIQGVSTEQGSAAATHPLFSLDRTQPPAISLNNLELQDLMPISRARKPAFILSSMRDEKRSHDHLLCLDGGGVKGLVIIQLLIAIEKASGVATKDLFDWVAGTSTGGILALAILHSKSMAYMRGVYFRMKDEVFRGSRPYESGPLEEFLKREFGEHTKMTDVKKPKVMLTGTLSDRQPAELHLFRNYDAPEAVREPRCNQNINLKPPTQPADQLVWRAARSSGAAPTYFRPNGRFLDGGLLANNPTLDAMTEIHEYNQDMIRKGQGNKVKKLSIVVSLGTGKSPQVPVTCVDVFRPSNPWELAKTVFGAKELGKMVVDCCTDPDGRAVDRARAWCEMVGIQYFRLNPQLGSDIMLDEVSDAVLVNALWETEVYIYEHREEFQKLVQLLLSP
Description: Inhibition of Pla2g6 in mouse Neuro2a cells at 3 nM after 4 hrs by ABPP-SILAC assay

[3] = target: Tripeptidyl-peptidase 2 (Mus musculus) (UniProt Q64514)
Chain of Tripeptidyl-peptidase 2 (Mus musculus) (Q64514 whole entry): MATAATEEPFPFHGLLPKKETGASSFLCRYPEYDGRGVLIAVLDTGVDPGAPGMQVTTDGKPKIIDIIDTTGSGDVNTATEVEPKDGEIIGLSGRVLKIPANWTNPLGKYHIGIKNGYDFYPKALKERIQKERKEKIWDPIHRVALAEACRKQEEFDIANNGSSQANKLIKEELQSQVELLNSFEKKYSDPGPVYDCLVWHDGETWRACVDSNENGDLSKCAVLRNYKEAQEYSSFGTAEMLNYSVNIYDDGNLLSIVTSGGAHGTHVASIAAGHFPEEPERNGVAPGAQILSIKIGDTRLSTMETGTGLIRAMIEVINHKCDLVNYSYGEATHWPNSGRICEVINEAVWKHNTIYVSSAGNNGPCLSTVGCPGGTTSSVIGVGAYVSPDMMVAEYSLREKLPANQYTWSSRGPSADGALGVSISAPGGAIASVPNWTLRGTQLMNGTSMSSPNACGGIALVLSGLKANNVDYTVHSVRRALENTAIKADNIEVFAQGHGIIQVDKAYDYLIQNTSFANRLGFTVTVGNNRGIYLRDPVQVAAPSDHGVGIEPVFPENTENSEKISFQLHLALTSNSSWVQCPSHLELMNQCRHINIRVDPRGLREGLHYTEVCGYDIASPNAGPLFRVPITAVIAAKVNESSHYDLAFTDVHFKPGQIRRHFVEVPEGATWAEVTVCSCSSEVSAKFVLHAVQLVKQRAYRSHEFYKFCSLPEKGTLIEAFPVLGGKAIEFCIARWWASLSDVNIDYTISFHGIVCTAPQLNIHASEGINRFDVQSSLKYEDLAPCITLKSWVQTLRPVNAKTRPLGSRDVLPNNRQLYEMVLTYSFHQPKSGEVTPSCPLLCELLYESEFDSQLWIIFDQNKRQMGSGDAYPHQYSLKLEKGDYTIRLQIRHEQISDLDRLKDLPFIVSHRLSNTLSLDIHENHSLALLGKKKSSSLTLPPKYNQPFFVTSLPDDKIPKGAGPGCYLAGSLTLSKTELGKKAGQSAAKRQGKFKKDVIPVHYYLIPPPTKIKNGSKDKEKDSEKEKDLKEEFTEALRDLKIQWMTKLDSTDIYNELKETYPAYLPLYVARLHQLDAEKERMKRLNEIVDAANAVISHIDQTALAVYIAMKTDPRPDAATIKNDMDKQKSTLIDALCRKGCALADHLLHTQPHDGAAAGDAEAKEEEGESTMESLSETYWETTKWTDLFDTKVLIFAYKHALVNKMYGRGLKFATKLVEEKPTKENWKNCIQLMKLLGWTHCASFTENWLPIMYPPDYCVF
Description: Inhibition of Tpp2 in mouse Neuro2a cells at 3 nM after 4 hrs by ABPP-SILAC assay

[4] = target: T3, Marginal zone B- and B1-cell-specific protein (Mus musculus) (UniProt Q9D8I1)
T3 sequence (whole entry): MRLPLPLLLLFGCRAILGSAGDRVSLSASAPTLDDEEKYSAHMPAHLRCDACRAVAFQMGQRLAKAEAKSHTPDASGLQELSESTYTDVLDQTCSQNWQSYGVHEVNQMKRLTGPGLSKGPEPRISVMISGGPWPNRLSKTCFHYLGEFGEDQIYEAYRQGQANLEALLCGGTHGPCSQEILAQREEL
Description: Inhibition of Perp1 in mouse Neuro2a cells at 3 nM after 4 hrs by ABPP-SILAC assay

[5] = target: Acyl-protein thioesterase 1 (Mus musculus) (UniProt P97823)
Chain of Acyl-protein thioesterase 1 (Mus musculus) (P97823 whole entry): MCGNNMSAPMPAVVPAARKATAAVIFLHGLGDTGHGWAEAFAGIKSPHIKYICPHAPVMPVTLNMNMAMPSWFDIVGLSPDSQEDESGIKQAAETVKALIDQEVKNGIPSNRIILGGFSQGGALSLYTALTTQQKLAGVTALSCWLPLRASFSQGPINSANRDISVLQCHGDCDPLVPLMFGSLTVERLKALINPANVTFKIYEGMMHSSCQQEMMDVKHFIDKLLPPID
Description: Inhibition of Lypla1 in mouse Neuro2a cells at 3 nM after 4 hrs by ABPP-SILAC assay

[6] = target: Dipeptidyl peptidase 2 (Mus musculus) (UniProt Q9ET22)
Chain of Dipeptidyl peptidase 2 (Mus musculus) (Q9ET22 whole entry): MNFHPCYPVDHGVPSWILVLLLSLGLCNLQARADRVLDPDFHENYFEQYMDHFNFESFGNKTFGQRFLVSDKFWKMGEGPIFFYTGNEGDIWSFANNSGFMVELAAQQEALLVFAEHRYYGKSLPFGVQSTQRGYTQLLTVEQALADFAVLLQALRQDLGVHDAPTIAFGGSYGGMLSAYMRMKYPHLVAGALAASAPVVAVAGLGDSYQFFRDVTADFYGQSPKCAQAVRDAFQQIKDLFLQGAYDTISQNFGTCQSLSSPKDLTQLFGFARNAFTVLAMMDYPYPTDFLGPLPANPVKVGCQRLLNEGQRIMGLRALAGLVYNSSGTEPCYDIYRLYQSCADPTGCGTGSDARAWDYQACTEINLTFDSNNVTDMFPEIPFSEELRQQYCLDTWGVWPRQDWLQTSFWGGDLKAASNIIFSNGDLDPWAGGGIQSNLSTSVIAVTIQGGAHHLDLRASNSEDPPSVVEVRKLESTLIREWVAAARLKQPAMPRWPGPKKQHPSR
Description: Inhibition of Dpp7 in mouse Neuro2a cells at 3 nM after 4 hrs by ABPP-SILAC assay

[7] = target: T4, Acetylcholinesterase (Mus musculus) (UniProt P21836)
T4 sequence (whole entry): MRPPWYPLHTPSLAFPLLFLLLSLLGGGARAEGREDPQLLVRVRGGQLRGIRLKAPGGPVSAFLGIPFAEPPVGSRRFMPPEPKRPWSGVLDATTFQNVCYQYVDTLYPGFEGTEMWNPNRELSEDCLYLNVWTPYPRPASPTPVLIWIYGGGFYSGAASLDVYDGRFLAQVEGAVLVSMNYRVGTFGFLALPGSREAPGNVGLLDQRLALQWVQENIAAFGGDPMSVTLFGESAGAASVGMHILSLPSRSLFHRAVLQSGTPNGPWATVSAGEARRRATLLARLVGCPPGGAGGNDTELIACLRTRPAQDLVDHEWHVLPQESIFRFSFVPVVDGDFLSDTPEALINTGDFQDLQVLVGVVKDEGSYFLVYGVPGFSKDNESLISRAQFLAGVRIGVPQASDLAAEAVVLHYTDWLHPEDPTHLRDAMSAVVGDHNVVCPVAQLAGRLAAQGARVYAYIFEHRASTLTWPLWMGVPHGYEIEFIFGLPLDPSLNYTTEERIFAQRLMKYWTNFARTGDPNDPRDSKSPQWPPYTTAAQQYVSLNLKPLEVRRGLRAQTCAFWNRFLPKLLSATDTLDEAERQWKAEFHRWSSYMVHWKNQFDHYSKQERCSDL
Description: Inhibition of Ache in mouse Neuro2a cells at 3 nM after 4 hrs by ABPP-SILAC assay

[8] = target: T5, Serine hydrolase-like protein (Mus musculus) (UniProt Q9EPB5)
T5 sequence (whole entry): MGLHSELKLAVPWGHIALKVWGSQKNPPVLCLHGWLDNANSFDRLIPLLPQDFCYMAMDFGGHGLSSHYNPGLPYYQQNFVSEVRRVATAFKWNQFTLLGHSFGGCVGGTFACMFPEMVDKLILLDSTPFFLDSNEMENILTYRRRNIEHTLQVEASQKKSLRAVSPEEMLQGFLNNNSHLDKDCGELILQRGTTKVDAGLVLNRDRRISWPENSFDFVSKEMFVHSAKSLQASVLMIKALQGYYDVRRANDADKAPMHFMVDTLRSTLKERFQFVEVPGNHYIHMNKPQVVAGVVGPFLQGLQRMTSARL
Description: Inhibition of Serhl in mouse Neuro2a cells at 3 nM after 4 hrs by ABPP-SILAC assay

Measured: inhibition

O=C(N1CCCCC1c1ccccc1)n1cc(-c2ccc(-c3cccc(CO)c3)cc2)nn1 (racemic)
< 50%: all assays above

O=C(O)c1cccc(-c2ccc(-c3cn(C(=O)N4CCCCC4Cc4ccccc4)nn3)cc2)c1 (racemic)
< 50%: all assays above

O=C(c1cccc(-c2ccc(-c3cn(C(=O)N4CCCCC4c4ccccc4)nn3)cc2)c1)N1CCCCC1 (racemic)
< 50%: all assays above
